Results reported in US20260355192A1, “PROPHYLACTIC OR THERAPEUTIC AGENT FOR PERIOSTIN-MEDIATED DISEASE AND PRURITUS ASSOCIATED THEREWITH” (SAGA UNIVERSITY, priority 2022, published 2026).

Legend:
integrin αvβ3 [1] = conditions: Nanri Y, et al. 2020; cited from earlier work
[2] = test system: scratching behaviors in FADS mice; test: Scratching behaviors in FADS mice upon single systemic administration of αvβ3 integrin inhibitors; format: in vivo, mouse (FADS, Nestin-cre/Ikk2ff); conditions: for % Change from baseline in the number of scratchings (mean ± standard error): single, 60 minutes after administration vs before administration
Text: Nestin-cre transgenic mice were crossed with IKK2^ff mice to prepare Nestin-cre/Ikk2^ff mice specifically lacking IKK2 in their facial skin fibroblasts (Nunomura S, et al. J Invest Dermatol. 139:1274-1283, 2019). These mice inevitably develop atopic dermatitis-like rash limited to the face and intense itchy symptoms, and were therefore designated as Facial Atopic Dermatitis with Scratching (FADS) mice. […] For evaluation of the prophylactic or therapeutic agent of the present invention, FADS mice at 3 to 4 weeks of age or older were used because of showing spontaneous scratching behaviors. It should be noted that in this Example section, the above compound of formula (I) (more particularly “CP4715”) was used as the prophylactic or therapeutic agent of the present invention.
FADS mice were acclimated for 20 minutes to the environment of a recording cage, and then recorded with a video camera. The recorded videos were replayed, and scratching behaviors were counted assuming that hind paw scratching to the face and the subsequent movement of toe licking or paw lowering to the ground were regarded as one cycle of scratching behavior.
(§1) Prior to the administration of the above αvβ3 integrin inhibitors, FADS mice were recorded for 60 minutes with a video camera and then allowed to rest for 15 minutes. The compounds except for GLPG-0187 were each dissolved at 89.5 mM in a diluent (physiological saline containing 50% DMSO and 89.5 mM HCL), from which an amount corresponding to 53.7 μmol/kg per mouse was then taken and diluted with 0.3 mL of PBS, and then administered intraperitoneally. […] Mice administered with 0.3 mL of PBS containing an equal amount of the diluent as calculated based on the body weight were used as a control group.
The mice were recorded for 60 minutes with a video camera immediately after administration of the above αvβ3 integrin inhibitors. The number of scratchings before administration was used as a baseline, and % change from the baseline after administration was calculated for each compound. For statistical analysis, paired t-test was used. A P-value of less than 0.05 was considered to be statistically significant. The effect of an inhibitor whose mean change from the baseline was −65% or more at a P-value of less than 0.01 was expressed as “++”; the effect of an inhibitor whose mean change from the baseline was −60% or less at a P-value of less than 0.05 was expressed as “+”; and the effect of an inhibitor whose mean change from the baseline was −60% or less at a P-value of 0.05 or higher was expressed as “−.”

integrin αvβ3 [3] = conditions: cited from earlier work
integrin αvβ3 [4] = target: T1, integrin αvβ3 (Homo sapiens, UniProt P05106+P06756); test: Inhibition of periostin-dependent adhesion of SW480 cells expressing integrin αvβ3; format: cell-based; conditions: immobilized recombinant human periostin, FIG. 6; for IC50: SW480 cells expressing human integrin β3, compounds at 0.001-1 μM, read-out: 50% inhibition concentration (IC50 value) for cell adhesion inhibitory activity; for cell adhesion inhibitory effect (in words): SW480 cells expressing integrin αvβ3
T1 construct: SW480 cells, a human colon cancer cell line not expressing integrin β3; expressed in transfected cells; host or cells: SW480 cells (human colon cancer) stably expressing human integrin β3
T1 sequence (P06756 31-889 limits assumed): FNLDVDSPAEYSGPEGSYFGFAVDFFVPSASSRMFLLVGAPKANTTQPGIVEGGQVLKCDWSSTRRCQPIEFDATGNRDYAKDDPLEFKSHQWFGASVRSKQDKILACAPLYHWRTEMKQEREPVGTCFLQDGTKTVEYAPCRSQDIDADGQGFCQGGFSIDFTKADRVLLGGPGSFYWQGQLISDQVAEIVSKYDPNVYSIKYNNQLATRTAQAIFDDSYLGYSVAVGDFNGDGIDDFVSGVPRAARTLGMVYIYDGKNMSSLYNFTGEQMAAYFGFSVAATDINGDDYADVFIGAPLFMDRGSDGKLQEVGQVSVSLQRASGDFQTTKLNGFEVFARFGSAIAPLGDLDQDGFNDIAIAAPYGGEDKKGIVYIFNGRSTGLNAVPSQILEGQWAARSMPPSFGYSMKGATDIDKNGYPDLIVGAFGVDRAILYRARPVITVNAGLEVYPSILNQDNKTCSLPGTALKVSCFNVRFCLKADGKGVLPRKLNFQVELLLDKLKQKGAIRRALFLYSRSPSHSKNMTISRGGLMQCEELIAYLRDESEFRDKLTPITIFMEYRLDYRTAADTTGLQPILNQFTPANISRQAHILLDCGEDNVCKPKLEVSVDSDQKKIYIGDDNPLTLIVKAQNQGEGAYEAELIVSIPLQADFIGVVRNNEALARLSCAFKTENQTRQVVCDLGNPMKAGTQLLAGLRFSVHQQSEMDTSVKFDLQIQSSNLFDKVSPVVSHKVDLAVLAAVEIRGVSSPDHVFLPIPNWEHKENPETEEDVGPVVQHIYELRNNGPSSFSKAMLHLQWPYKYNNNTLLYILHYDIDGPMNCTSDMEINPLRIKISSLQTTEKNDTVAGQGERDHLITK
T1 sequence (P06756 891-1048 partner limits assumed): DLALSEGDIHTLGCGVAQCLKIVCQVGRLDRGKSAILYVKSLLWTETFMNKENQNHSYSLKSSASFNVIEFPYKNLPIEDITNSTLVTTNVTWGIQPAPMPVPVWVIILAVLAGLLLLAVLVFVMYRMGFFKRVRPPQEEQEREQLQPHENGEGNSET
T1 sequence (P05106 27-788): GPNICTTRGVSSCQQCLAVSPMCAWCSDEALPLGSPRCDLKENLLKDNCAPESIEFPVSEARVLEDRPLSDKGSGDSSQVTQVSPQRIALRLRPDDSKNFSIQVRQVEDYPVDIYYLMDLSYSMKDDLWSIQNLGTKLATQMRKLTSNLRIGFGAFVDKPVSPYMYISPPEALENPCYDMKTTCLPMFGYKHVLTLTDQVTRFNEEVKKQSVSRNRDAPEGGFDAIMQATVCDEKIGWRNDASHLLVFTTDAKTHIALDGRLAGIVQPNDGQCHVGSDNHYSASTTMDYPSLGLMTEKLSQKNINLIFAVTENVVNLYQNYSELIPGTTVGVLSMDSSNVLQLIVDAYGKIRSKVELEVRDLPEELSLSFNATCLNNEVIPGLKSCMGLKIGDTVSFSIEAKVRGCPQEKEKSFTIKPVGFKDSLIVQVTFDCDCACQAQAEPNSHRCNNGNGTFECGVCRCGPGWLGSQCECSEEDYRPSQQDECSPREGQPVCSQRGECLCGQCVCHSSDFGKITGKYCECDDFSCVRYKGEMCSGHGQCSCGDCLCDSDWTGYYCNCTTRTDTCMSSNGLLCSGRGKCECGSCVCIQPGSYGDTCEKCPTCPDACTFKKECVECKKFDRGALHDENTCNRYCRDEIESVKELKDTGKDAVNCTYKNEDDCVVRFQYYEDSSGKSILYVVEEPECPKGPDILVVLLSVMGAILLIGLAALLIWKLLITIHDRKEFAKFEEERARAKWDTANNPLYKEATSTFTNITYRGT
Description: For use in cell adhesion experiments, SW480 cells, a human colon cancer cell line not expressing integrin β3, were genetically engineered to stably express human integrin β3 (Nanri Y, et al. Am J Respir Cell Mol Biol. 62:204-216, 2020). The compounds shown in Table 1 were examined for their inhibitory activity against adhesion between integrin αvβ3 and periostin according to the following procedures. First, a 96-well plate was treated with 10 μg/mL recombinant human periostin (Bio-Techne) at 4 °C for 16 hours to immobilize periostin. The SW480 cells expressing integrin αvβ3 (5×10^4 cells) were reacted at room temperature for 15 minutes with the above compounds at 0.001, 0.01, 0.1 and 1 μM in serum-free DMEM (Dulbecco's Modified Eagle Medium) containing 0.5% bovine serum albumin and 0.25 mM MnCl2. A group receiving no compound was used as a control. The reacted cell suspensions were added to separate wells of the above human periostin-immobilized plate, and the plate was centrifuged at 10×g for 5 minutes and then cultured at 37 °C for 60 minutes. Then, after the adhered cells were washed to remove unbound cells, the adhered cells were fixed with 1% formaldehyde and stained with 0.5% crystal violet. The fixed and stained cells were solubilized with 0.2% Triton X-100 and measured for absorbance at 595 nm. The absorbance of the control (i.e., the group receiving no compound) was set to 0% inhibition. […] Cell adhesion in this test system is periostin-dependent, and a compound inhibiting this cell adhesion can be referred to as a periostin receptor antagonist.

[5] = Solubility in the diluent; format: physicochemical; conditions: diluent: physiological saline containing 50% DMSO and 89.5 mM HCl
Description: as §1

scratching behaviors = conditions: intracutaneous or subcutaneous administration; Non-patent Document 2; cited from earlier work

| IC50 (integrin αvβ3 [4]) | cell adhesion inhibitory effect (in words) (integrin αvβ3 [4]) | solubility [5] | Molecule | inhibition of binding between integrin αvβ3 and periostin (integrin αvβ3 [1]) | % Change from baseline in the number of scratchings (mean ± standard error) ([2]; 53.7 μmol/kg i.p.) | grade of effect on % change from the baseline in the number of scratchings ([2]; single i.p., 53.7 μmol/kg (GLPG-0187 5.37 μmol/kg), paired t-test) | inhibition of binding between integrin αvβ3 and vitronectin (integrin αvβ3 [3]) | % Change from baseline in the number of scratchings (mean ± standard error) ([2]; 5.37 μmol/kg i.p.) | induction of scratching behaviors (scratching behaviors) |
| --- | --- | --- | --- | --- | --- | --- | --- | --- | --- |
| ≤ 1 nM | high | – | O=C(NC[C@H](NS(=O)(=O)c1ccccc1)C(=O)O)c1ccc(N2CCC[C@H](NC3=NCCCN3)C2)cc1 [CP derivative 6, (S)-2-(Phenylsulfonamido)-3-(4-((S)-3-((1,4,5,6-tetrahydropyrimidin-2-yl)amino)piperidin-1-yl)benzamido)propanoic acid] | inhibit binding | −77.8 ± 7.9% | ++ (mean change from the baseline was −65% or more at a P-value of less than 0.01) | inhibit binding | – | – |
| ≤ 1 nM | high | low solubility | COc1ccc(S(=O)(=O)N[C@@H](CNc2nc(C)nc(N3CCC(c4ccc5c(n4)NCCC5)CC3)c2C)C(=O)O)cc1 [GLPG-0187, (S)-3-((2,5-dimethyl-6-(4-(5,6,7,8-tetrahydro-1,8-naphthyridin-2-yl)piperidin-1-yl)pyrimidin-4-yl)amino)-2-((4-methoxyphenyl)sulfonamido)propanoic acid] | – | – | – | – | −38.9 ± 31.2% | – |
| – | – | – | Periostin: extracellular matrix protein that binds to cell surface receptors belonging to the integrin family (protein, UniProt Q15063 22-836, looked up) Periostin: NNHYDKILAHSRIRGRDQGPNVCALQQILGTKKKYFSTCKNWYKKSICGQKTTVLYECCPGYMRMEGMKGCPAVLPIDHVYGTLGIVGATTTQRYSDASKLREEIEGKGSFTYFAPSNEAWDNLDSDIRRGLESNVNVELLNALHSHMINKRMLTKDLKNGMIIPSMYNNLGLFINHYPNGVVTVNCARIIHGNQIATNGVVHVIDRVLTQIGTSIQDFIEAEDDLSSFRAAAITSDILEALGRDGHFTLFAPTNEAFEKLPRGVLERIMGDKVASEALMKYHILNTLQCSESIMGGAVFETLEGNTIEIGCDGDSITVNGIKMVNKKDIVTNNGVIHLIDQVLIPDSAKQVIELAGKQQTTFTDLVAQLGLASALRPDGEYTLLAPVNNAFSDDTLSMDQRLLKLILQNHILKVKVGLNELYNGQILETIGGKQLRVFVYRTAVCIENSCMEKGSKQGRNGAIHIFREIIKPAEKSLHEKLKQDKRFSTFLSLLEAADLKELLTQPGDWTLFVPTNDAFKGMTSEEKEILIRDKNALQNIILYHLTPGVFIGKGFEPGVTNILKTTQGSKIFLKEVNDTLLVNELKSKESDIMTTNGVIHVVDKLLYPADTPVGNDQLLEILNKLIKYIQIKFVRGSTFKEIPVTVYTTKIITKVVEPKIKVIEGSLQPIIKTEGPTLTKVKIEGEPEFRLIKEGETITEVIHGEPIIKKYTKIIDGVPVEITEKETREERIITGPEIKYTRISTGGGETEETLKKLLQEEVTKVTKFIEGGDGHLFEDEEIKRLLQGDTPVRKLQANKKVQGSRRRLREGRSQ | – | – | – | – | – | induce scratching behaviors |
